Twelve molecules from patent EP0237138A1, “Heterocyclic compounds, their preparation and, pharmaceutical compositions containing them” (YAMANOUCHI PHARMACEUTICAL CO. LTD., priority 1986, dated 1987) can be followed below.

The target in assay [1] is T1, human placenta aldose reductase (Homo sapiens, UniProt P15121).
T1 construct: a human placenta aldose reductase was purified to a single protein; from tissue; host or cells: human placenta
The experiment in a line: Aldose reductase-inhibitory activity (rate of disappearance of NADPH, glyceraldehyde substrate). The class given is biochemical. The note with it: for inhibition at 1 µM: 10^-6(M); for inhibition at 0.1 µM: 10^-7(M). The protocol: The compound of the present invention, aldose reductase and nicotinamide adenine dinucleotide phosphate (NADPH) are dissolved in a buffer of pH 6.2 and incubated for 10 minutes at 25°C; glyceraldehyde is added thereto to start the reaction, and the rate of disappearance of NADPH is defined to be the enzyme activity of the aldose reductase.

Assay [2] relates to Platelet aggregation in PRP. The assay can be described thus: Platelet aggregation-inhibitory activity (arachidonate-induced aggregation in platelet-rich plasma, Born's method). The note with it: aggregation induced by arachidonate.

Turning to `O=C1NC(=O)[C@@]2(CCOc3ccc(F)cc32)N1` [Sorbinil, reference compound], in assay [1], the inhibition at 1 µM was 53.6% and the inhibition at 0.1 µM was 15%.

For `O=C1NC(=S)SC1=C1C(=O)Nc2ccc(Br)cc21` [Example 67, 5-bromo-3-(4-oxo-2-thioxo-5-thiazolidinylidene)-2-indolinone], at 1 µM the inhibition in assay [1] was 64%.

In assay [1], `COc1cccc2c1CCCC2=C1SC(=S)N(CC(=O)O)C1=O` [Example 11, 5-(5-methoxy-1,2,3,4-tetrahydro-1-naphthylidene)-4-oxo-2-thioxo-3-thiazolidine-acetic acid] showed an inhibition at 1 µM of 89% and an inhibition at 0.1 µM of 40%.

For the molecule `O=C1NC(=O)/C(=C2\CCS(=O)(=O)c3ccccc32)S1` [Example 99B, (Z)-4-(2,4-dioxo-5-thiazolidinylidene)thiochroman 1,1-dioxide], in assay [1], 1 µM produced 87% inhibition and testing at 0.1 µM gave an inhibition of 42%.

In assay [1], `O=C1NC(=S)SC1=C1CCSc2ccccc21` [Example 105, 4-oxo-5-(4-thiochromanylidene)-2-thioxo-thiazolidine] had an inhibition at 1 µM of 83% and an inhibition at 0.1 µM of 29%.

`O=C1NC(=S)SC1=C1C(=O)Nc2ccc(Cl)cc21` [Example 66, 5-chloro-3-(4-oxo-2-thioxo-5-thiazolidinylidene)-2-indolinone] displayed an inhibition at 1 µM in assay [1] of 72%.

As to `O=C1NC(=S)SC1=C1C=CS(=O)(=O)c2ccccc21` [Example 119], the “Platelet Aggregation Inhibition” value in assay [2] (400 (μM)) is reported as 84%. In assay [1], this molecule had an inhibition at 1 µM of 53% and an inhibition at 0.1 µM of 37%.

As for `O=C(O)c1ccc(N2C(=O)C(=C3CCS(=O)(=O)c4ccccc43)SC2=S)cc1` [Example 54, 4-[3-(p-carboxyphenyl)-4-oxo-2-thioxo-5-thiazolidinylidene]thiochroman 1,1-dioxide], in assay [2] (200 (μM)), the “Platelet Aggregation Inhibition” value is on record as 65%. In assay [1], this molecule showed an inhibition at 1 µM of 30% and an inhibition at 0.1 µM of 15%.

On to `O=C1NC(=S)SC1=C1C(=O)Nc2ccccc21` [Example 146, 3-(4-oxo-2-thioxo-3-thiazolidinylidene)-2-indolinone], for which, in assay [1], 1 µM produced 56% inhibition.

Take `COc1ccc2c(c1)CCCC2=C1SC(=S)N(CC(=O)O)C1=O` [Example 7, 5-(6-methoxy-1,2,3,4-tetrahydro-1-natphylidene)-4-oxo-2-thioxo-3-thiazolidine-acetic acid]: the “Platelet Aggregation Inhibition” value in assay [2] (200 (μM)) is 100%. In assay [1], this molecule showed an inhibition at 1 µM of 93% and an inhibition at 0.1 µM of 65%.

As to `O=C1NC(=S)SC1=C1CCCS(=O)(=O)c2ccccc21` [Example 49, 2,3,4,5-tetrahydro-5-(4-oxo-2-thioxo-5-thiazolidinylidene)-1-benzothiepine 1,1-dioxide], in assay [1], the inhibition at 1 µM worked out at 65% and the inhibition at 0.1 µM was determined as 23%.

Take `N=C1NC(=O)C(=C2CCS(=O)(=O)c3ccccc32)S1` [Example 95, 4-(2-imino-4-oxo-5-thiazolidinylidene)thiochroman 1,1-dioxide]: in assay [2] (400 (μM)), the “Platelet Aggregation Inhibition” value is reported as 43%. In assay [1], this molecule had an inhibition at 1 µM of 65% and an inhibition at 0.1 µM of 19%.
